Experimental findings from patent US20260232666A1, “COMPOSITIONS AND METHODS FOR INHIBITION OF RAS” (TheRas, Inc., priority 2023, published 2026) are described below.

The target in this experiment is T1, Avi-KRAS G12C (1-169) GppNHp/RAF1 RBD-3×FLAG (52-151) (Homo sapiens, UniProt P01116, G12C).
T1 construct: Avi-KRAS G12C (1-169) GppNHp; Avi (N)
T1 sequence (P01116 1-169 isoform P01116-2 G12C limits assumed): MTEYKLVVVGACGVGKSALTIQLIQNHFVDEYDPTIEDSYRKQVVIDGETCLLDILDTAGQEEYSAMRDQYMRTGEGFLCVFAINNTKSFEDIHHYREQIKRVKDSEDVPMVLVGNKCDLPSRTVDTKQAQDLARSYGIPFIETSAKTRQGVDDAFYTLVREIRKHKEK
Briefly: Raf1 RBD-KRAS G12C-GppNHp disruption assay (protein:protein interaction HTRF). In kind it is biochemical. The method, then:
Biological Example 2: Disrupting KRAS G12C-Effector Binding (Protein: Protein Interaction HTRF Assay)
A protein: protein interaction (PPI) Homogeneous Time Resolved Fluorescence (HTRF) assay was used to determine the effectiveness of compounds of the present disclosure in disrupting KRAS G12C protein and effector (RAF1 Ras Binding Domain (RBD)) binding.
The HTRF assay used the following reagents and proteins: 50 nM Avi-KRAS G12C (1-169) GppNHp/RAF1 RBD-3×FLAG (52-151); 35 nM Avi-PI3K RBD-3×FLAG; Assay Buffer: 50 mM Tris pH 7.5, 100 mM NaCl, 5 mM MgCl2, 0.1% BSA, 0.01% Tween 20, 10% DMSO; Bead Buffer: 50 mM Tris pH 7.5, 0.01% Tween 20; Assay volume: 20 μL (384 well plate-low volume format); and Compound titration: 30-0.02 μM, 3× dilution series.
The HTRF assay employed the following protocol:
Compounds were dispensed in assay plate (384-well, Grenier Bio-One #784075) using Echo (model 555) with dose response settings: 200 nL final volume, titration from 100 μM as a 10-point dilution series. KRAS proteins were prepared in assay buffer, and dispensed on plates, 5 μL per well, then incubated for 1 h at room temperature, with 700 rpm shaking. RAF1 RBD were prepared in assay buffer, dispensed onto plates, 5 μL per well, and then incubated for 1 h at room temperature, with 700 rpm shaking. Reagent mix was then prepared and dispensed on plates, 10 μL per well, and then incubated for 1 h at room temperature, with 700 rpm shaking.
Plates were analyzed on an Envision plate reader using the following setting: Excitation 320 nm, Bandwidth 75 nm; Emission 615 nm, Bandwidth 85 nm; Gain 100%; Flashes 100; Lag 60 μs. Data was reported as percentage of activity, with DMSO as 100%. Data was plotted and analyzed using Prism 8.
The percent of modification of GppNHp, GTP, or GDP loaded KRAS G12C by MALDI-TOF MS, biochemical Raf1 RBD-KRAS G12C-GppNHp disruption assay IC50, and pERK inhibition IC50 of selected compounds described herein are shown in Table 4. For percent of modification at 15 minutes (MALDI-TOF MS) of GppNHp, GTP, or GDP loaded KRAS G12C: A: percent of modification ≥70%; B: 50≤percent of modification <70%; C: 10%≤percent of modification <50%; D: percent of modification <10%. […] For pERK inhibition in H358 cell assay: A: IC50≤0.1 μM; B: 0.1 μM<IC50≤1 μM; C: IC50>1 μM. Blanks in the table represent that compound was not tested in the indicated assay.
For orientation: IC50 means the concentration needed to halve the response being measured. A low value points to greater potency. Molecule `C=CC(=O)N1C[C@H](C)N(c2nc(OC[C@@]34CCCN3C[C@H](F)C4)nc3c(F)c(-c4ccc(F)c5sc(N)c(C#N)c45)c(Cl)cc23)C[C@H]1C` (atropisomer, axis not shown) [Compound 102] showed a 50% inhibitory concentration (IC50) of less than 500 nM. Turning to `C=CC(=O)N1C[C@H](C)N(c2nc(OC[C@@]34CCCN3C[C@H](F)C4)nc3c(F)c(-c4ccc(F)c5sc(N)c(C#N)c45)c(Cl)cc23)C[C@H]1C` (atropisomer, axis not shown) [Compound 103], the IC50 is 5000 to 20000 nM. With `C=CC(=O)N1CC[C@@H](N(C)c2nc(OC[C@@H]3CC4(CC4)CN3C)nc3c(F)c(-c4ccc(F)c5sc(N)c(C#N)c45)c(C(F)(F)F)cc23)[C@@H]1C` (atropisomer, axis not shown) [Compound 111], the IC50 is less than 500 nM.

In turn, `C=CC(=O)N1CC[C@@H](N(CC)c2nc(OC[C@@H]3C[C@@H](F)CN3C)nc3c(F)c(-c4ccc(F)c5sc(N)c(C#N)c45)c(C(F)(F)F)cc23)[C@H]1C` (atropisomer, axis not shown) [Compound 113] had an IC50 of less than 500 nM. In turn, `C=CC(=O)N1CC[C@@H](N(CC)c2nc(OC[C@@H]3C[C@@H](F)CN3C)nc3c(F)c(-c4ccc(F)c5sc(N)c(C#N)c45)c(C(F)(F)F)cc23)[C@H]1C` (atropisomer, axis not shown) [Compound 114] gave an IC50 of 5000 to 20000 nM. As for `C=CC(=O)N1CC[C@@H](N(C)c2nc(OC[C@@H]3CCCN3C)nc3c(F)c(-c4ccc(F)c5sc(N)c(C#N)c45)c(Cl)cc23)[C@H]1C` (atropisomer, axis not shown) [Compound 118], the figure is less than 500 nM; as for `C=CC(=O)N1CC[C@@H](N(C)c2nc(OC[C@@H]3CCCN3C)nc3c(F)c(-c4ccc(F)c5sc(N)c(C#N)c45)c(Cl)cc23)[C@H]1C` (atropisomer, axis not shown) [Compound 119], 5000 to 20000 nM; as for `C=CC(=O)N1CC[C@@H](N(CC)c2nc(OC[C@@H]3CC4(CC4)CN3C)nc3c(F)c(-c4ccc(F)c5sc(N)c(C#N)c45)c(Cl)cc23)[C@H]1C` (atropisomer, axis not shown) [Compound 120], less than 500 nM.

On to `C=CC(=O)N1CC[C@@H](N(CC)c2nc(OC[C@@H]3CC4(CC4)CN3C)nc3c(F)c(-c4ccc(F)c5sc(N)c(C#N)c45)c(Cl)cc23)[C@H]1C` (atropisomer, axis not shown) [Compound 121], for which the IC50 fell in the range of 5000 to 20000 nM. Molecule `C=CC(=O)N1CC[C@@H](N(C)c2nc(OC[C@@H]3CCCN3C)nc3c(F)c(-c4ccc(F)c5sc(N)c(C#N)c45)c(C(F)(F)F)cc23)[C@H]1C` (atropisomer, axis not shown) [Compound 131] returned an IC50 of less than 500 nM. `C=CC(=O)N1CC[C@@H](N(C)c2nc(OC[C@@H]3CCCN3C)nc3c(F)c(-c4ccc(F)c5sc(N)c(C#N)c45)c(C(F)(F)F)cc23)[C@H]1C` (atropisomer, axis not shown) [Compound 132] displayed an IC50 of 5000 to 20000 nM. As for `C=CC(=O)N1CC[C@H](N(CC)c2nc(OC[C@@]34CCCN3C[C@H](F)C4)nc3c(F)c(-c4ccc(F)c5sc(N)c(C#N)c45)c(C(F)(F)F)cc23)C1` (atropisomer, axis not shown) [Compound 171], the figure is less than 500 nM; as for `C=CC(=O)N1C[C@H](N(C)c2nc(OC[C@@]34CCCN3C[C@H](F)C4)nc3c(F)c(-c4ccc(F)c5sc(N)c(C#N)c45)c(C(F)(F)F)cc23)C[C@H]1C` (atropisomer, axis not shown) [Compound 176], less than 500 nM.

`C=CC(=O)N1C[C@H](N(C)c2nc(OC[C@@]34CCCN3C[C@H](F)C4)nc3c(F)c(-c4ccc(F)c5sc(N)c(C#N)c45)c(C(F)(F)F)cc23)C[C@H]1C` (atropisomer, axis not shown) [Compound 177]: the IC50 was 500 to 5000 nM. As for `C=CC(=O)N1CC[C@@H](N(CC)c2nc(OC[C@@H]3C[C@@H](OC)CN3C)nc3c(F)c(-c4ccc(F)c5sc(N)c(C#N)c45)c(C(F)(F)F)cc23)[C@H]1C` (single isomer, unassigned) [Compound 116], the IC50 is less than 500 nM. The molecule `C=CC(=O)N1CC[C@@H](N(CC)c2nc(OC[C@@H]3C[C@@H](OC)CN3C)nc3c(F)c(-c4ccc(F)c5sc(N)c(C#N)c45)c(C(F)(F)F)cc23)[C@H]1C` (single isomer, unassigned) [Compound 117] returned an IC50 of 5000 to 20000 nM. Regarding `C=CC(=O)N1CC[C@@H](N(C)c2nc(OC[C@@H]3C[C@@H](OC)CN3C)nc3c(F)c(-c4ccc(F)c5sc(N)c(C#N)c45)c(C(F)(F)F)cc23)[C@H]1C` (single isomer, unassigned) [Compound 172], the half-maximal inhibitory concentration (IC50) is less than 500 nM. Under `C=CC(=O)N1CC[C@@H](N(C)c2nc(OC[C@H]3C[C@@H](OC)CN3C)nc3c(F)c(-c4ccc(F)c5sc(N)c(C#N)c45)c(C(F)(F)F)cc23)[C@H]1C` (single isomer, unassigned) [Compound 173] stands less than 500 nM; under `C=CC(=O)N1CC[C@@H](N(C)c2nc(OC[C@@H]3C[C@@H](OC)CN3C)nc3c(F)c(-c4ccc(F)c5sc(N)c(C#N)c45)c(C(F)(F)F)cc23)[C@H]1C` (single isomer, unassigned) [Compound 174], 500 to 5000 nM. Molecule `C=CC(=O)N1CC[C@@H](N(C)c2nc(OC[C@H]3C[C@@H](OC)CN3C)nc3c(F)c(-c4ccc(F)c5sc(N)c(C#N)c45)c(C(F)(F)F)cc23)[C@H]1C` (single isomer, unassigned) [Compound 175] showed an IC50 of 5000 to 20000 nM. `C=CC(=O)N1CC[C@@H](N(C)c2nc(OC[C@@]34CCCN3C[C@H](F)C4)nc3c(F)c(-c4ccc(F)c5sc(N)c(C#N)c45)ccc23)[C@H]1CC` [Compound 4] came in with a half-inhibitory concentration (IC50) of less than 500 nM. Molecule `C=CC(=O)N1CCC(N(C)c2nc(OC[C@@]34CCCN3C[C@H](F)C4)nc3cc(-c4ccc(F)c5sc(N)c(C#N)c45)c(C#N)cc23)[C@H]1CC` (some centres unmarked) [Compound 7] yielded an IC50 of less than 500 nM. The molecule `C=CC(=O)N1CCC(N(CC)c2nc(OC[C@@]34CCCN3C[C@H](F)C4)nc3c(F)c(-c4ccc(F)c5sc(N)c(C#N)c45)c(C(F)(F)F)cc23)[C@H]1CC` (some centres unmarked) [Compound 8] registered an IC50 of less than 500 nM. As for `C=CC(=O)N1CCC(N(C)c2nc(OC[C@@H]3CCCN3C)nc3c(F)c(-c4nc(N)cc(C)c4C(F)(F)F)c(Cl)cc23)[C@H]1C` (some centres unmarked) [Compound 9], the IC50 was less than 500 nM. As to `C=CC(=O)N1CCC(N(C)c2nc(OC[C@@]34CCCN3C[C@H](F)C4)nc3c(F)c(-c4nc(N)cc(C)c4C(F)(F)F)c(Cl)cc23)[C@H]1C` (some centres unmarked) [Compound 10], the IC50 is less than 500 nM.

On to `C=CC(=O)N1CCC(N(CC)c2nc(OC[C@@]34CCCN3C[C@H](F)C4)nc3c(F)c(-c4ccc(F)c5sc(N)c(C#N)c45)ccc23)[C@H]1CC` (some centres unmarked) [Compound 11], for which the 50% inhibitory concentration (IC50) was less than 500 nM. As for `C=CC(=O)N1CCC(N(CC)c2nc(OC[C@@]34CCCN3C[C@H](F)C4)nc3c(F)c(-c4ccc(F)c5sc(N)c(C#N)c45)c(Cl)cc23)[C@H]1CC` (some centres unmarked) [Compound 12], the figure is less than 500 nM; as for `C=CC(=O)N1CCC(N(CC)c2nc(OC[C@@]34CCCN3C[C@H](F)C4)nc3cc(-c4ccc(F)c5sc(N)c(C#N)c45)c(C#N)cc23)[C@H]1CC` (some centres unmarked) [Compound 14], less than 500 nM. Under `C=CC(=O)N1CC[C@@H](N(CC)c2nc(OC[C@@]34CCCN3C[C@H](F)C4)nc3c(F)c(-c4ccc(F)c5sc(N)c(C#N)c45)ccc23)[C@H]1C` [Compound 17, 4-(4-(((2R,3R)-1-acryloyl-2-methylpyrrolidin-3-yl)(ethyl)amino)-8-fluoro-2-(((2R,7aS)-2-fluorotetrahydro-1H-pyrrolizin-7a(5H)-yl)methoxy)quinazolin-7-yl)-2-amino-7-fluorobenzo[b]thiophene-3-carbonitrile] stands less than 500 nM. In turn, `C=CC(=O)N1CC[C@@H](N(C)c2nc(OC[C@@]34CCCN3C[C@H](F)C4)nc3c(F)c(-c4ccc(F)c5sc(N)c(C#N)c45)c(C(F)(F)F)cc23)[C@H]1CC` [Compound 18] yielded an IC50 of less than 500 nM. Under `C=CC(=O)N1CC[C@@H](N(C)c2nc(OC[C@@]34CCCN3C[C@H](F)C4)nc3c(F)c(-c4ccc(F)c5sc(N)c(C#N)c45)c(Cl)cc23)[C@H]1CC` [Compound 19] stands less than 500 nM. Under `C=CC(=O)N1CC[C@@H](N(CC)c2nc(OC[C@@]34CCCN3C[C@H](F)C4)nc3c(F)c(-c4ccc(F)c5sc(N)c(C#N)c45)c(Cl)cc23)[C@H]1CC` [Compound 20] stands less than 500 nM.
